Data on one molecule can be found in patent publication US10551384B2, “MTOR kinase mutations and methods of use thereof” (RUTGERS, THE STATE UNIVERSITY OF NEW JERSEY, priority 2016, dated 2020).

In experiment [1] the test system is xenograft tumors derived from SW480 cells expressing WT mTOR. In words: SW480 xenograft tumor model, WT mTOR. The format is in vivo, mice. The protocol:
(§1) FIGS. 6A-E. L2185A mutation renders resistance of xenograft tumors to mTOR kinase inhibitors. (FIG. 6A) Mice bearing xenograft tumors derived from SW480 cells expressing WT mTOR were administered with INK128 at 1 mg/kg or 0.3 mg/kg, once daily via intraperitoneal injection. Shown are representative animals and excised tumors after drug treatment. (FIG. 6B) Same as FIG. 6A except xenograft tumors were derived from SW480 carrying homozygous mTOR(L2185A) alleles. (FIG. 6C) Tumor volume measurement for SW480 xenograft tumors expressing mTOR (WT) (expressed as means±SD; n=8, *P<0.01, vs. vehicle control). (FIG. 6D) Tumor volume measurement for SW480 xenograft tumors expressing mTOR(L2185A) mutant (expressed as means±SD; n=8). (FIG. 6E) Tissue extracts from xenograft tumors at the end of treatment with or without 1 mg/kg INK128 were analyzed for the level of P-S6K, S6K, P-S6, S6, P-4E-BP1, 4E-BP1, P-AKT and AKT was analyzed by immunoblot. Six tumor samples from each animal group were shown with each lane representing an individual tumor sample.
(§2) Female athymic NCr-nu/nu mice (4-6 weeks old) were obtained from Taconic Farms. […] Tumor volume was calculated by the following formula: tumor volume (mm^3)=(shorter diameter^2× longer diameter)/2 and are presented as means±SD (n=8) (Zhang, Y., and Zheng, X. (2012). Cell Cycle 11, 594-603). […]

Experiment [2] relates to xenograft tumors derived from SW480 cells carrying homozygous mTOR(L2185A) alleles. In words: SW480 xenograft tumor model, mTOR(L2185A). The class given is in vivo, mice. The protocol:
as §1, §2

The subject of experiment [3] is mTORC1 and mTORC2 signaling in SW480 mTOR(L2185A) cells. The experiment can be described thus: mTORC1/mTORC2 signaling immunoblot in SW480 cells carrying L2185A mutant mTOR. The format is cell-based, human. The conditions noted are these: various concentrations, 1 hr, immunoblot of P-S6K, P-4E-BP1, P-AKT. The protocol:
(FIG. 5A) SW480 cells carrying homozygous WT mTOR or L2185A mutant alleles were treated with various concentrations of AZD8055, INK-128, OSI-027 and PP242 for 2 day. Growth of SW480 cells was measured by SRB assay. Data represent means±SD in three independent experiments. (FIG. 5B) SW480 cells carrying homozygous WT and L2185A mutant mTOR allele were treated with a single dose of AZD8055 (100 nM), INK-128 (100 nM), OSI-027 (6,000 nM), and PP242 (2,000 nM) for different times. Cell growth was measured by SRB assay. The drug carrier DMSO was used as a control. Data represent means±SD in three independent experiments. (FIG. 5C) SW480 cells carrying homozygous WT and L2185A mutant mTOR were treated with various concentrations of INK-128, OSI-027, AZD8055 and PP242 for 1 hr. The effect on the level of P-S6K, S6K, P-4E-BP1, 4EB-P1, P-AKT and AKT was analyzed by immunoblot. […] The growth of SW480 cells was measured by SRB assay. Data represent means±SD in three independent experiments.
Antibodies against tubulin, S6K, phospho-S6K (Thr389), 4E-BP1, phospho-4E-BP1 (Thr37/46), Akt, phospho-Akt (Thr308), and phospho-Akt (Ser473) were purchased from Cell Signaling Technology. […] For drug sensitivity test, cancer cells were seeded in 96-well plates at a density of 2,000 cells per well. 24 hours later, different concentrations of mTOR inhibitors were added in quadruplicate. Cell growth was measured by the sulforhodamine B (SRB) assay as previously described (Vichai, V., and Kirtikara, K. (2006). Nature protocols 1, 1112-1116).

Experiment [4] has as its system TOR2-mTOR L2185C mutant. In words: Yeast spotting assay for drug resistance, TOR2-mTOR L2185C. The format is cell-based, S. cerevisiae. To be noted: 37° C., amphotericin B present (except OSI-027). From the text:
FIGS. 4A-C. […] (FIG. 4A) Scheme of a yeast-based screen for drug-resistant mutations in mTOR kinase domain. mTOR kinase domain is amplified by error-prone PCR to generate randomized mutations, which is then recombined in frame into the TOR2-mTOR plasmid by gap-repair in tort-dg cells, and is selected on SC-leucine minus plates. Replica plating is then made onto SC-leucine plates containing DMSO or mTOR kinase inhibitor for selection of drug resistant clones. (FIG. 4B) tor2-dg cells expressing WT or mutant TOR2-mTOR were serially diluted by 10-fold and assayed for sensitivity to different mTOR kinase inhibitors in the presence of amphotericin B. Vector and TOR2 were used as controls. Drug resistant assay was performed at 37° C. in the presence of amphotericin B (except OSI-027). (FIG. 4C) Systematic mutational analysis of L2185 on drug resistance. tort-dg cells expressing WT or mutant TOR2-mTOR carrying all possible mutations at L2185 were serially diluted by 10-fold and tested for sensitivity to different mTOR kinase inhibitors at 37° C.
To enhance yeast cell permeability, log phase W303 tort-dg cells were spread evenly on SD-Leu agarose plates. After drying, small sterile filter discs were placed on the surface and 5 μl of indicated mTOR inhibitors or DMSO were applied to each disc with or without adding 5 μl of amphotericin B (10 μM), miconazole (50 μM) or caspofungin (50 μM). Plates were incubated at 37° C. for 3 day. Drug resistance profiles of TOR2-mTOR mutant cells were determined by the spotting assay. For this assay, 10-fold serial dilutions of cells were spotted on SD-leu plates in the presence of indicated mTOR inhibitors with or without amphotericin B (200 nM) and incubated at 37° C. for 3 day.

Setting [5] is: 1 mg/kg or 0.3 mg/kg once daily, intraperitoneal injection.
[6] abbreviates: 1 mg/kg, tumor extracts at end of treatment, immunoblot.

Entries after “also recorded” stand apart in the source; their conditions may differ.

Regarding `CC(C)n1nc(-c2ccc3oc(N)nc3c2)c2c(N)ncnc21` [INK128], the “growth of WT mTOR xenograft tumors” value in experiment [1] (setting [5]) is “strongly attenuates growth”. The “mTOR signaling in WT mTOR xenograft tumors” value in experiment [1] (setting [6]) is reported as “complete blockadge of mTOR signaling”. Moreover, the “growth of mTOR(L2185A) xenograft tumors” value in experiment [2] (setting [5]) is recorded as “little or no effect”. Further, the “mTORC1 and mTORC2 signaling in mTOR(L2185A) xenograft tumors” value in experiment [2] (setting [6]) is “drug-resistance in mTORC1 and mTORC2 signaling”. Also, the “drug resistance of mTORC1 and mTORC2 signaling, SW480 L2185A vs WT” value in experiment [3] is “drug-resistant signaling by both mTORC1 and mTORC2”. Further, the “drug resistance/sensitivity of TOR2-mTOR L2185C mutant yeast” value in experiment [4] is “confer resistance; also recorded: conferring resistance”.
